The source of these data is patent US20090253669A1, “Substituted Sulfonamide Compounds” (GRUENENTHAL GmbH, priority 2008, published 2009).

Experiment [1] addresses T1, human B1R receptor (hB1R) (Homo sapiens, UniProt P46663).
T1 construct: host or cells: CHO K1 cells
T1 sequence (P46663 1-353): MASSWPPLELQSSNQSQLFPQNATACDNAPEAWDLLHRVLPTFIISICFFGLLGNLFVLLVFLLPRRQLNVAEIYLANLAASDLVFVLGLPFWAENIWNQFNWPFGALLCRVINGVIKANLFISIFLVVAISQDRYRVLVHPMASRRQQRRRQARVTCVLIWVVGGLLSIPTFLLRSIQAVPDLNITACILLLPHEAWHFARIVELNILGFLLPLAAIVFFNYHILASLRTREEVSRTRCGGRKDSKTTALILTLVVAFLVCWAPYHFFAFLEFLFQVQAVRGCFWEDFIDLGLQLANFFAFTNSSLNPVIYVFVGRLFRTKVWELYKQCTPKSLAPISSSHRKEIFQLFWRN
Nature of the experiment: FLIPR Ca2+ assay on hB1R-transfected CHO K1 cells, antagonistic action. The note with it: CHO-K1, 10 μM test substance; agonist Lys-Des-Arg9-bradykinin 0.5 nM; % of maximum achievable inhibition; read-out: hB1R [10 μM] % inhibition. In kind it is cell-based.

Experiment [2] addresses T2, B1R receptor of the rat (rB1R) (Rattus norvegicus, UniProt P97583).
T2 construct: host or cells: CHO K1 cells
T2 sequence (P97583 1-337): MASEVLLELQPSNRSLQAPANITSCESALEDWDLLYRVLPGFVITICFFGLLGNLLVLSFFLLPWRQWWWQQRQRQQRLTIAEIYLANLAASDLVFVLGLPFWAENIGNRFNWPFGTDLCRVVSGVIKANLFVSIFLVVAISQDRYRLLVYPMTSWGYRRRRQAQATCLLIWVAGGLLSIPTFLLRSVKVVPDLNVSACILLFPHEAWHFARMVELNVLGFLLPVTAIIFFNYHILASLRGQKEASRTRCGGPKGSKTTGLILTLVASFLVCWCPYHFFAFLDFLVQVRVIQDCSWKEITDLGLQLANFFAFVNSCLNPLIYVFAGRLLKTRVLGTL
Description: FLIPR Ca2+ assay on rB1R-transfected CHO K1 cells, antagonistic action. In kind it is cell-based. The note with it: CHO-K1, 10 μM test substance; agonist Des-Arg9-bradykinin 100 nM; % of maximum achievable inhibition; read-out: rB1R [10 μM] % inhibition.

In the case of `COc1cc(C)c(S(=O)(=O)N2CCCC(COCC(=O)NC3CCC(c4ccccc4)(N4CCCC4)CC3)C2)c(C)c1` (stereo not drawn) [Compound 187, 2-((1-(4-methoxy-2,6-dimethylphenylsulfonyl)piperidin-3-yl)methoxy)-N-(4-phenyl-4-(pyrrolidin-1-yl)cyclohexyl)acetamide], the figures for the inhibition at 10 µM in experiment [1] and in experiment [2] were 95% and 63%, respectively.

For the compound `COc1cc(C)c(S(=O)(=O)N2CCCCC2COCC(=O)N(C)CCC2CCC(Cc3ccccc3)(N3CCCC3)CC2)c(C)c1` (stereo not drawn) [Compound 68, N-(2-(4-benzyl-4-(pyrrolidin-1-yl)cyclohexyl)ethyl)-2-((1-(4-methoxy-2,6-dimethylphenylsulfonyl)piperidin-2-yl)methoxy)-N-methylacetamide], the inhibition at 10 µM is 103% in experiment [1] and 100% in experiment [2].

As for `COc1cc(C)c(S(=O)(=O)N2CCCCC2COCC(=O)N(C)CCCC2CCC(c3ccccc3)(N3CCC3)CC2)c(C)c1` (stereo not drawn) [Compound 205, N-(3-(4-(azetidin-1-yl)-4-phenylcyclohexyl)propyl)-2-((1-(4-methoxy-2,6-dimethylphenylsulfonyl)piperidin-2-yl)methoxy)-N-methylacetamide], the inhibition at 10 µM in experiment [1] and in experiment [2] was 100% each time.

Regarding `Cc1cc(C)c(S(=O)(=O)N2CCC(OCC(=O)NC3CCC(CCc4ccccc4)(N(C)C)CC3)C2)c(C)c1` (stereo not drawn) [Compound 29, N-(4-(dimethylamino)-4-phenethylcyclohexyl)-2-(1-(mesitylsulfonyl)pyrrolidin-3-yloxy)acetamide], the inhibition at 10 µM in experiment [1] is 61%; in experiment [2], 46%.

As to `COc1cc(C)c(S(=O)(=O)N2CCCCC2COCC(=O)N(C)CCC2CCC(Cc3ccccc3)(N(C)C)CC2)c(C)c1` (stereo not drawn) [Compound 84, N-(2-(4-benzyl-4-(dimethylamino)cyclohexyl)ethyl)-2-((1-(4-methoxy-2,6-dimethylphenylsulfonyl)piperidin-2-yl)methoxy)-N-methylacetamide], the inhibition at 10 µM in experiment [1] stood at 104%; in experiment [2] it was 99%.

In the case of `CN(CCC1CCC(CCc2ccccc2)(N(C)C)CC1)C(=O)CC(NS(=O)(=O)c1ccc2ccccc2c1)c1ccccc1` (stereo not drawn) [Compound 102, N-(2-(4-(dimethylamino)-4-phenethylcyclohexyl)ethyl)-N-methyl-3-(naphthalene-2-sulfonamido)-3-phenylpropanamide], the inhibition at 10 µM is 97% in experiment [1] and 85% in experiment [2].

Turning to `COc1cc(C)c(S(=O)(=O)N2CCCCC2COCC(=O)N2CCC(Cc3ccccc3)(N3CCN(C)CC3)CC2)c(C)c1` (stereo not drawn) [Compound 57, 1-(4-benzyl-4-(4-methylpiperazin-1-yl)piperidin-1-yl)-2-((1-(4-methoxy-2,6-dimethylphenylsulfonyl)piperidin-2-yl)methoxy)ethanone], the inhibition at 10 µM in experiment [1] and in experiment [2] was 100% in each case.

Consider `CN(C)C1(c2ccccc2)CCC(NC(=O)CC2c3ccccc3CCN2S(=O)(=O)c2ccc(Cl)c(Cl)c2)CC1` (stereo not drawn) [Compound 26, 2-(2-(3,4-dichlorophenylsulfonyl)-1,2,3,4-tetrahydroisoquinolin-1-yl)-N-(4-(dimethylamino)-4-phenylcyclohexyl)acetamide], for which the inhibition at 10 µM in experiment [1] amounted to 84%; in experiment [2], 56%.

As for `COc1cc(C)c(S(=O)(=O)N2CCC(OCC(=O)NCC3CCC(c4ccccc4)(N4CCOCC4)CC3)C2)c(C)c1` (stereo not drawn) [Compound 173, 2-(1-(4-methoxy-2,6-dimethylphenylsulfonyl)pyrrolidin-3-yloxy)-N-((4-morpholino-4-phenylcyclohexyl)methyl)acetamide], the results for the inhibition at 10 µM in experiment [1] and in experiment [2] were 64% and 78%, respectively.

On to `COc1cc(C)c(S(=O)(=O)N2CCCCC2CCOCC(=O)N2CCC(c3cccc(F)c3)(N3CCN(C)CC3)CC2)c(C)c1` (stereo not drawn) [Compound 227, 1-(4-(3-Fluorophenyl)-4-(4-methylpiperazin-1-yl)piperidin-1-yl)-2-(2-(1-(4-methoxy-2,6-dimethylphenylsulfonyl)piperidin-2-yl)ethoxy)ethanone], for which the inhibition at 10 µM in experiment [1] turned out to be 100%; in experiment [2] it was 99%.

With `CN1CCN(C2(c3ccc(F)cc3)CCN(C(=O)COCC3CCc4ccccc4N3S(=O)(=O)c3ccc(Cl)c(Cl)c3)CC2)CC1` (stereo not drawn) [Compound 126, 2-((1-(3,4-dichlorophenylsulfonyl)-1,2,3,4-tetrahydroquinolin-2-yl)methoxy)-1-(4-(4-fluorophenyl)-4-(4-methylpiperazin-1-yl)piperidin-1-yl)ethanone], the inhibition at 10 µM in experiment [1] came to 87%; in experiment [2], 55%.

With `Cc1cc(S(=O)(=O)N2CCCCC2CCC(=O)N(C)CCCC2CCC(Cc3ccccc3)(N3CCCC3)CC2)c(C)cc1Cl` (stereo not drawn) [Compound 124, N-(3-(4-benzyl-4-(pyrrolidin-1-yl)cyclohexyl)propyl)-3-(1-(4-chloro-2,5-dimethylphenylsulfonyl)piperidin-2-yl)-N-methylpropanamide], the inhibition at 10 µM came to 98% in experiment [1] and 58% in experiment [2].

For `COc1cc(C)c(S(=O)(=O)N2CCCCC2COCC(=O)NC2CCC(c3ccccc3)(N3CCOCC3)CC2)c(C)c1` (stereo not drawn) [Compound 158, 2-((1-(4-methoxy-2,6-dimethylphenylsulfonyl)piperidin-2-yl)methoxy)-N-(4-morpholino-4-phenylcyclohexyl)acetamide], the inhibition at 10 µM is 87% in experiment [1] and 99% in experiment [2].

`COc1cc(C)c(S(=O)(=O)N(C)CCOCC(=O)N(C)CCC2CCC(Cc3ccccc3)(N(C)C)CC2)c(C)c1` (stereo not drawn) [Compound 53, N-(2-(4-benzyl-4-(dimethylamino)cyclohexyl)ethyl)-2-(2-(4-methoxy-N,2,6-trimethylphenylsulfonamido)ethoxy)-N-methylacetamide]: the inhibition at 10 µM in experiment [1] was 103%; in experiment [2] it was 100%.

On to `COc1cc(C)c(S(=O)(=O)N(C)CCOCC(=O)NC2CCC(c3cccc(F)c3)(N(C)C)CC2)c(C)c1` (stereo not drawn) [Compound 6, N-(4-(dimethylamino)-4-(3-fluorophenyl)cyclohexyl)-2-(2-(4-methoxy-N,2,6-trimethylphenylsulfonamido)ethoxy)acetamide], for which the inhibition at 10 µM in experiment [1] and in experiment [2] was 100% throughout.

As for `COc1cc(C)c(S(=O)(=O)N2CCC(OCC(=O)N3CCC(c4cccc(F)c4)(N4CCN(C)CC4)CC3)C2)c(C)c1` (stereo not drawn) [Compound 217, 1-(4-(3-Fluorophenyl)-4-(4-methylpiperazin-1-yl)piperidin-1-yl)-2-(1-(4-methoxy-2,6-dimethylphenylsulfonyl)pyrrolidin-3-yloxy)ethanone], the inhibition at 10 µM in experiment [1] turned out to be 100%; in experiment [2] it was 98%.

`COc1cc(C)c(S(=O)(=O)N(C)CCOCC(=O)NC2CCC(Cc3ccccc3)(N3CCCCC3)CC2)c(C)c1` (stereo not drawn) [Compound 17, N-(4-benzyl-4-(piperidin-1-yl)cyclohexyl)-2-(2-(4-methoxy-N,2,6-trimethylphenylsulfonamido)ethoxy)acetamide]: the results for the inhibition at 10 µM in experiment [1] and in experiment [2] were 86% and 75%, respectively.

As to `COc1cc(C)c(S(=O)(=O)N2CCC(OCC(=O)NC3CCC(Cc4ccccc4)(N4CCCCC4)CC3)C2)c(C)c1` (stereo not drawn) [Compound 18, N-(4-benzyl-4-(piperidin-1-yl)cyclohexyl)-2-(1-(4-methoxy-2,6-dimethylphenylsulfonyl)pyrrolidin-3-yloxy)acetamide], the inhibition at 10 µM in experiment [1] amounted to 68%; in experiment [2] it was 74%.

Take `CN1CCN(C2(Cc3ccccc3)CCC(CN(C)C(=O)COCCN(C)S(=O)(=O)c3c(Cl)cc(Cl)cc3Cl)CC2)CC1` (stereo not drawn) [Compound 186, N-((4-benzyl-4-(4-methylpiperazin-1-yl)cyclohexyl)methyl)-N-methyl-2-(2-(2,4,6-trichloro-N-methylphenylsulfonamido)ethoxy)acetamide]: the inhibition at 10 µM in experiment [1] was 97%; in experiment [2] it was 64%.

Regarding `CN(CCC1CCC(Cc2ccccc2)(N2CCCC2)CC1)C(=O)CC(NS(=O)(=O)c1ccc2ccccc2c1)c1ccccc1` (stereo not drawn) [Compound 56, N-(2-(4-benzyl-4-(pyrrolidin-1-yl)cyclohexyl)ethyl)-N-methyl-3-(naphthalene-2-sulfonamido)-3-phenylpropanamide], the values for the inhibition at 10 µM in experiment [1] and in experiment [2] were 101% and 100%, respectively.

For the compound `CN(CC1CCC(Cc2ccccc2)(N2CCCC2)CC1)C(=O)COCC1CCc2ccccc2N1S(=O)(=O)c1ccc(Cl)c(Cl)c1` (stereo not drawn) [Compound 127, N-((4-benzyl-4-(pyrrolidin-1-yl)cyclohexyl)methyl)-2-((1-(3,4-dichlorophenylsulfonyl)-1,2,3,4-tetrahydroquinolin-2-yl)methoxy)-N-methylacetamide], the inhibition at 10 µM in experiment [1] turned out to be 90%; in experiment [2], 54%.
